The subject of one test is C. difficile. As to the kind of experiment: MIC of antimicrobial peptides (Table 4). It counts as cell-based, Clostridium difficile.
The next test deals with MRSA. As to the kind of experiment: MIC of antimicrobial peptides (Table 4). It counts as cell-based, Methicillin-resistant Staphylococcus aureus.
The subject of another test is S. epidermidis. Kind of test: MIC of antimicrobial peptides (Table 4). It is filed as cell-based, Staphylococcus epidermidis.
The subject of the next test is E. coli. Kind of test: MIC of antimicrobial peptides (Table 4). It counts as cell-based, Escherichia coli.
A further test relates to S. pneumoniae. As to the kind of experiment: MIC of antimicrobial peptides (Table 4). It counts as cell-based, Streptococcus pneumoniae.
Another test concerns S. mutans. As to the kind of experiment: MIC of antimicrobial peptides (Table 4). It is filed as cell-based, Streptococcus mutans.
A further test concerns P. aeruginosa. Kind of test: MIC of antimicrobial peptides (Table 4). It is filed as cell-based, Pseudomonas aeruginosa.
For the next test, the system named is C. jeikeium. As to the kind of experiment: MIC of antimicrobial peptides (Table 4). It counts as cell-based, Corynebacterium jeikeium.
Another test relates to B. subtilis. Kind of test: MIC of antimicrobial peptides (Table 4). It is filed as cell-based, Bacillus subtilis.
In the next test the test system is T. rubrum. As to the kind of experiment: MIC of antimicrobial peptides (Table 4). It counts as cell-based, Trichophyton rubrum.
In another test the test system is A. niger. Kind of test: MIC of antimicrobial peptides (Table 4). It counts as cell-based, Aspergillus niger.
For test [1], the system named is bacteria, fungi, and/or yeasts. It is filed as binding.
Another test concerns A. baumannii. Kind of test: MIC of antimicrobial peptides (Table 4). It counts as cell-based, Acinetobacter baumannii.
The next test deals with C. albicans. Kind of test: MIC of antimicrobial peptides (Table 4). It is filed as cell-based, Candida albicans.
The next test has as its system E. faecalis. As to the kind of experiment: MIC of antimicrobial peptides (Table 4). It is filed as cell-based, Enterococcus faecalis.
Where [2] appears, read: microorganism(s) listed as target(s) of the targeting peptide, wrapped target lists given cell by cell.

Entries after “also recorded” stand apart in the source; their conditions may differ. Where two headings read alike, the source gives them in different places. Ends that are not written are not given here.

Turning to FELVDWLETNLGKILKSKSA-NH2 [PF-522], the “Organism MIC” value in the test on C. difficile is reported as “C. difficile, 25 μM”.
Take “FESKILNASKELDKEKKVNTALSFNSHQDFAKAYQNGKI [PF-606]”: the “Organism MIC” value in the test with MRSA is “MRSA, 50 μM”; in the test with S. epidermidis it was “S. epidermidis, 50 μM”; in the test with E. coli it was “E. coli, 50 μM”; with S. pneumoniae it was “S. pneumoniae, 50 μM”; with S. mutans, “S. mutans, 50 μM”.
FIRKFLQKLHL [K-16]: the “Organism MIC” value is “MRSA, 25 μM” with MRSA; “P. aeruginosa, 12.5 μM” in the test on P. aeruginosa; “S. mutans, 8 μM” with S. mutans.
For the substance “GSVIKKRRKRMAKKKHRKLLKKTRIQRRRAGK [PF-527]”, the “Organism MIC” value in the test with MRSA is listed as “MRSA, 50 μM”; with S. epidermidis, “S. epidermidis, 25 μM”; in the test with C. jeikeium, “C. jeikeium, 6.25 μM”; in the test with B. subtilis, “B. subtilis, 12.5 μM”; in the test on T. rubrum it was “T. rubrum, 25 μM”; in the test on P. aeruginosa, “P. aeruginosa, 50 μM”. In the test on A. niger, the “Organism MIC” value was “A. niger, 50 μM”. For the same substance, in test [1], the “Target(s)” value is listed as “S. epidermidis, M. luteus, P. mirabilis,; also recorded: E. coli, P. aeruginosa,; also recorded: MRSA, S. pneumoniae, E. faecalis,; also recorded: C. jeikeium, C. jejuni”.
For the substance KFQGEFTNIGQSYIVSASHMSTSLNTGK [PF-583], the “Organism MIC” value is “MRSA, 50 μM” in the test with MRSA and “S. epidermidis, 50 μM” with S. epidermidis. Besides, the “Target(s)” value in test [1] (setting [2]) is on record as “C. albicans hyphae”.
Take KFSDQIDKGQDALKDKLGDL [PF-525]: the “Organism MIC” value with A. niger is listed as “A. niger, 50 μM”; with S. pneumoniae, “S. pneumoniae, 50 μM”.
For KNKKQTDILEKVKEILDKKKKTKSVGQKLY [PF-538], the “Organism MIC” value in the test on A. baumannii is “A. baumannii, 25 μM”; with C. difficile, “C. difficile, 25 μM”.
On to LSEMERRRLRKRA-NH2 [PF-529], for which the “Organism MIC” value is recorded as “A. niger, 50 μM” in the test with A. niger and “S. pneumoniae, 50 μM” in the test with S. pneumoniae.
LSLATFAKIFMTRSNWSLKRFNRL [PF-278]: the “Organism MIC” value in the test on S. epidermidis is “S. epidermidis, 50 μM”; in the test with T. rubrum, “T. rubrum, 50 μM”; in the test on C. albicans, “C. albicans, 50 μM”.
In the case of MGIIAGIIKFIKGLIEKFTGK [PF-006], the “Organism MIC” value in the test on MRSA is “MRSA, 50 μM”; with B. subtilis (B. subtilis), “B. subtilis, 25 μM”; in the test on A. baumannii, “A. baumannii, 50 μM”. Besides, in [1] (setting [2]), the “Target(s)” value is given as “S. epidermidis, M. luteus, E. coli,; also recorded: P. aeruginosa, MRSA, E. faecalis,; also recorded: C. jeikeium, C. jejuni”.
Take MIRIRSPTKKKLNRNSISDWKSNTSGRFFY [PF-283]: the “Organism MIC” value in the test on S. epidermidis was “S. epidermidis, 50 μM”; in the test on B. subtilis (B. subtilis) it was “B. subtilis, 50 μM”; in the test on T. rubrum, “T. rubrum, 50 μM”.
With “MKRRRCNWCGKLFYLEEKSKEAYCCKECRKKAKKVKK [PF-307]”, the “Organism MIC” value was “B. subtilis, 50 μM” with B. subtilis (B. subtilis); “T. rubrum, 50 μM” in the test with T. rubrum; “C. albicans, 50 μM” in the test on C. albicans.
Regarding MRFGSLALVAYDSAIKHSWPRPSSVRRLRM [PF-672], the “Organism MIC” value is on record as “MRSA, 1.56 μM” in the test on MRSA; “S. epidermidis, 0.39 μM” with S. epidermidis; “B. subtilis, 0.78 μM” in the test with B. subtilis (B. subtilis); “T. rubrum, 0.78 μM” in the test on T. rubrum; “C. albicans, 1.56 μM” in the test with C. albicans; “A. niger, 3 μM” in the test on A. niger. For the same substance, the “Organism MIC” value in the test on E. faecalis is given as “E. faecalis, 3.13 μM”.
For the substance NYAVVSHT [PF-209], the “Organism MIC” value with MRSA was “MRSA, 50 μM”.
For PDAPRTCYHKPILAALSRIVVTDR [PF-524], in the test on S. pneumoniae, the “Organism MIC” value is “S. pneumoniae, 50 μM”.
RESKLIAMADMIRRRI-NH2 [PF-545]: the “Organism MIC” value with MRSA is given as “MRSA, 50 μM”; in the test on B. subtilis (B. subtilis), “B. subtilis, 25 μM”; with A. niger, “A. niger, 50 μM”.
Turning to RRGCTERLRRMARRNAWDLYAEHFY [PF-148], the “Organism MIC” value in the test with B. subtilis (B. subtilis) is given as “B. subtilis, 50 μM”; in the test on A. niger it was “A. niger, 50 μM”. For the same substance, in test [1] (setting [2]), the “Target(s)” value is on record as “S. epidermidis, M. luteus, P. mirabilis,; also recorded: E. coli, P. aeruginosa,; also recorded: C. albicans, MRSA, S. pneumoniae,; also recorded: E. faecalis, C. jeikeium,; also recorded: C. jejuni, M. smegmatis”.
As for SFMPEIQKNTIPTQMK [PF-512], the “Organism MIC” value in the test with S. pneumoniae was “S. pneumoniae, 50 μM”.
For the substance SKFKVLRKIIIKEYKGELMLSIQKQR [PF-530], the “Organism MIC” value with A. baumannii was “A. baumannii, 25 μM”.
In the case of SLQSQLGPCLHDQRH [PF-448], the “Organism MIC” value is “A. niger, 25 μM” with A. niger and “S. pneumoniae, 50 μM” in the test on S. pneumoniae.
“TKKIELKRFVDAFVKKSYENYILERELKKLIKAINEELPTK [PF-600]”: the “Organism MIC” value is given as “E. coli, 50 μM” in the test on E. coli and “S. pneumoniae, 50 μM” in the test with S. pneumoniae.
Turning to VLPFPAIPLSRRRACVAAPRPRSRQRAS [PF-168], the “Organism MIC” value with MRSA was “MRSA, 50 μM”; with T. rubrum, “T. rubrum, 50 μM”; in the test on A. niger, “A. niger, 50 μM”. Moreover, the “Target(s)” value in test [1] (setting [2]) is “yeast cells; also recorded: S. epidermidis, M. luteus, E. coli,; also recorded: C. albicans, MRSA, C. jeikeium,; also recorded: C. jejuni”.
For VMQSLYVKPPLILVTKLAQQN [PF-511], the “Organism MIC” value with S. pneumoniae is reported as “S. pneumoniae, 50 μM”.
Turning to WSRVPGHSDTGWKVWHRW-NH2 [PF-547], the “Organism MIC” value is “B. subtilis, 25 μM” with B. subtilis (B. subtilis); “T. rubrum, 25 μM” in the test with T. rubrum; “S. mutans, 12.5 μM” in the test on S. mutans.
Take YIQFHLNQQPRPKVKKIKIFL-NH2 [PF-531]: the “Organism MIC” value with S. epidermidis is on record as “S. epidermidis, 50 μM”; in the test on C. jeikeium it was “C. jeikeium, 6.25 μM”; in the test with B. subtilis (B. subtilis) it was “B. subtilis, 25 μM”; in the test on A. baumannii, “A. baumannii, 25 μM”; with T. rubrum, “T. rubrum, 50 μM”; in the test with P. aeruginosa it was “P. aeruginosa, 50 μM”. Also, the “Organism MIC” value is “A. niger, 25 μM” in the test with A. niger; “S. mutans, 12.5 μM” in the test on S. mutans; “C. difficile, 12.5 μM” with C. difficile.

The values above are taken from patent US20120003661A1, “METHODS AND DEVICES FOR THE SELECTIVE DETECTION OF MICROORGANISMS” (C3 JIAN, INC., priority 2010, published 2012).
